# According to patent US7419789B2, “Method of inhibiting binding of Dengue virus to a human cell with DC-SIGN blockers” (Institut Pasteur, priority 2002, dated 2008):
# Tested on: DEN-1 virus strain FGA/NA d1d
# Assay: Inhibition of DC-SIGN-mediated DEN-1 virus infection of THP/DC-SIGN cells, indirect immunofluorescence
# Format: cell-based, DEN-1 virus (human monocytic THP/DC-SIGN cells)
# Conditions: m.o.i. 5 AP61 FFU/cell
# Protocol: Prior to infection, THP-1/DC/SIGN cells were incubated with either Mab 9D12 (dilution 1:50), Mab BD12.5 (20 μg/ml), Mab 1B10.2.6 (20 μg/ml), EDTA (5 mM), mannan (20 μg/ml), or mock-treated (control). Treated cells were infected with DEN-1 virus strain FGA/NA did (5 AP61 FFU/cell) in the presence of reagents for 2 hrs. Viral antigens were detected by indirect immunofluorescence as described in the legend of FIG. 1. The percentages of infected cells 48 h post-infection are indicated. Values represent the mean of triplicate assays ±SD.
# Cells were washed once with RPMI 1640, incubated with highly purified virus in RPMI 1640 supplemented with 0.2% bovine serum albumine (BSA, pH 7.5) (Sigma) for 2 hrs at 37° C. and placed into fresh media supplemented with 2% FCS, 2 mM L-glutamine and antibiotics Peni/Strepto at 37° C. for 40 hrs.
# The percentage of cells expressing viral antigen was determined using either DEN-1 virus-specific hyperimmune mouse ascites fluid (HMAF) 9801 (strain Hawaï), WN virus-specific HMAF 0801 (strain IS-98-ST1), or YF virus-specific HMAF. 9803 (strain FNV) with dilution of 1:50, by indirect immunofluorescence as previously described (Desprès et al., J. Virol., 70: 4090, 1996). […]
Compound,"infectivity of DEN-1 virus in preincubated THP/DC-SIGN cells (EDTA 5 mM, Mab 20 μg/ml)",reduction of FGA/NA d1d infectivity (20 μg/ml) [%]
O=C(O)CN(CCN(CC(=O)O)CC(=O)O)CC(=O)O [EDTA],essentially abolished,
mannan,,75
